Results: the supplement of paper PMC11061612

Experiments:
Assay in all cases: Bliss excess, mean over the matrix (fraction); higher = more synergy
[1] = tested on: SNU-C5 (Colorectal Carcinoma)
Outline: (§1)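 Bliss excess equals the observed combination effect minus the expected value EA + EB − EA·EB, where EA and EB are the effects of each agent alone. Combination Emax is the second-highest inhibition within the matrix. Inhibition was scaled from CellTiter-Glo 2.0 luminescence, with 0 set by vehicle wells and 1 by blank wells, after 72 hours of two-drug dosing of cells plated in 1536-well plates.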

[2] = tested on: NALM-6 (B-Lymphoblastic Leukemia)
Outline: as §1

[3] = tested on: SW1088 (Low Grade Glioma)
Outline: as §1

[4] = tested on: DOV13 (Ovarian Carcinoma)
Outline: as §1

[5] = tested on: HCC2157 (Breast Carcinoma)
Outline: as §1

[6] = tested on: LU-99A (Non-Small Cell Lung Carcinoma)
Outline: as §1

[7] = tested on: EM-2 (Chronic Myelogenous Leukemia)
Outline: as §1

[8] = tested on: DB (B-Cell Non-Hodgkin's Lymphoma)
Outline: as §1

[9] = tested on: SUIT-2 (Pancreatic Carcinoma)
Outline: as §1

[10] = tested on: DMS-273 (Small Cell Lung Carcinoma)
Outline: as §1

[11] = tested on: HT-29 (Colorectal Carcinoma)
Outline: as §1

[12] = tested on: COR-L23 (Non-Small Cell Lung Carcinoma)
Outline: as §1

[13] = tested on: TE-5 (Esophageal Squamous Cell Carcinoma)
Outline: as §1

[14] = tested on: SK-N-FI (Neuroblastoma)
Outline: as §1

[15] = tested on: CTV-1 (T-Lymphoblastic Leukemia)
Outline: as §1

[16] = tested on: SN12C (Kidney Carcinoma)
Outline: as §1

[17] = tested on: U-266 (Plasma Cell Myeloma)
Outline: as §1

[18] = tested on: DSH1 (Bladder Carcinoma)
Outline: as §1

[19] = tested on: HPAC (Pancreatic Carcinoma)
Outline: as §1

[20] = tested on: SW780 (Bladder Carcinoma)
Outline: as §1

| SMILES | Bliss excess [1] | Bliss excess [2] | Bliss excess [3] | Bliss excess [4] | Bliss excess [5] | Bliss excess [6] | Bliss excess [7] | Bliss excess [8] | Bliss excess [9] | Bliss excess [10] | Bliss excess [11] | Bliss excess [12] | Bliss excess [13] | Bliss excess [14] | Bliss excess [15] | Bliss excess [16] | Bliss excess [17] | Bliss excess [18] | Bliss excess [19] | Bliss excess [20] |
| --- | --- | --- | --- | --- | --- | --- | --- | --- | --- | --- | --- | --- | --- | --- | --- | --- | --- | --- | --- | --- |
| Cc1c2c(nn1C)CSCc1cc(n(C)n1)CSc1cc(c3ccccc3c1)OCCCc1c(C(=O)O)n(C)c3c-2c(Cl)ccc13 [AZD5991] + CC1(C)CCC(CN2CCN(c3ccc(C(=O)NS(=O)(=O)c4ccc(NCC5CCOCC5)c([N+](=O)[O-])c4)c(Oc4cnc5[nH]ccc5c4)c3)CC2)=C(c2ccc(Cl)cc2)C1 [Venetoclax] (first compound max 1 µM, 7x7, partner max 1 µM) | -0.0164 | 0.173 | -0.0187 | 0.0007 | 0.0305 | -0.0555 | 0.248 | 0.185 | -0.0287 | -0.0099 | -0.0015 | -0.0178 | 0.037 | 0.034 | -0.0011 | -0.0193 | 0.0759 | 0.0397 | -0.0498 | 0.0215 |
| CN(CCO)CC[C@H](CSc1ccccc1)Nc1ccc(S(=O)(=O)NC(=O)c2ccc(N3CCC([C@@H](O)c4ccccc4-c4ccc(Cl)cc4)CC3)cc2)cc1S(=O)(=O)C(F)(F)F [AZD4320] + C[C@@H](Nc1cc(F)cc(F)c1)c1cc(C(=O)N(C)C)cc2c(=O)cc(N3CCOCC3)oc12 [AZD8186] (first compound max 1 µM, 7x7, partner max 3 µM) | -0.0704 | 0.0514 | 0.0357 | -0.0141 | 0.0774 | -0.0296 | 0.0055 | -0.0096 | 0.025 | 0.0236 | 0.0097 | -0.0063 | -0.0144 | -0.0165 | 0.0326 | -0.0193 | -0.0077 | -0.0381 | -0.0014 | 0.0084 |
| CCN(CCO)CCCOc1ccc2c(Nc3cc(CC(=O)Nc4cccc(F)c4)[nH]n3)ncnc2c1 [AZD2811] + C=CCn1c(=O)c2cnc(Nc3ccc(N4CCN(C)CC4)cc3)nc2n1-c1cccc(C(C)(C)O)n1 [AZD1775] (first compound max 1 µM, partner max 1 µM) | 0.0188 | -0.0515 | 0.0034 | -0.0063 | -0.0071 | -0.0354 | -0.0184 | 0.0251 | -0.017 | 0.0064 | -0.0446 | -0.0043 | -0.076 | -0.0452 | 0.0014 | -0.0698 | 0.0031 | -0.0013 | 0.0048 | 0.0194 |
| COc1nnc2ccc(N3CCC(c4ccc(OCCN5CCN(C)C(=O)[C@H]5C)cc4)CC3)nn12 [AZD5153] + CCN(CCO)CCCOc1ccc2c(Nc3cc(CC(=O)Nc4cccc(F)c4)[nH]n3)ncnc2c1 [AZD2811] (first compound max 1 µM, 7x7, partner max 1 µM) | -0.0541 | -0.0683 | -0.0669 | -0.0908 | 0.0389 | -0.0244 | -0.001 | -0.0585 | -0.0399 | -0.0409 | -0.0281 | -0.0551 | -0.0124 | -0.0579 | 0.0988 | 0.0129 | -0.0763 | -0.0802 | -0.0283 | -0.0766 |
| COc1cccc(OCCCN)c1-c1cc(Nc2cnc(C#N)cn2)n[nH]1 [Prexasertib] + C[C@@H]1COCCN1C2=NC(=NC(=C2)C3(CC3)[S@](=N)(=O)C)C4=C5C=CNC5=NC=C4 [AZD6738] (first compound max 1 µM, 7x7, partner max 10 µM) | -0.0143 | -0.0522 | -0.0192 | 0.0179 | -0.0145 | -0.0398 | -0.0344 | -0.0569 | -0.03 | -0.0374 | -0.0361 | -0.0311 | 0.0203 | 0.0336 | -0.0725 | 0.0012 | -0.0859 | -0.0083 | -0.0351 | 0.0009 |
| CC1(C)CCC(CN2CCN(c3ccc(C(=O)NS(=O)(=O)c4ccc(NCC5CCOCC5)c([N+](=O)[O-])c4)c(Oc4cnc5[nH]ccc5c4)c3)CC2)=C(c2ccc(Cl)cc2)C1 [Venetoclax] + Cc1cc2ncnn2cc1Nc1ncc2c(n1)n(C1CCOCC1)c(=O)n2C [AZD7648] (first compound max 1 µM, 7x7, partner max 10 µM) | -0.0233 | -0.0184 | -0.105 | 0.0659 | 0.0602 | -0.0437 | -0.0135 | 0.0225 | -0.0271 | -0.0147 | 0.0077 | -0.0351 | -0.0382 | 0.0047 | -0.0249 | -0.0471 | 0.0148 | -0.027 | 0.0142 | -0.0035 |
| CN(C)CCCOc1ccc(-c2ccc3ncc4c(c3c2)n(C2CCOCC2)c(=O)n4C)cn1 [AZD0156] + C[C@@H]1COCCN1C2=NC(=NC(=C2)C3(CC3)[S@](=N)(=O)C)C4=C5C=CNC5=NC=C4 [AZD6738] (first compound max 1 µM, 7x7, partner max 10 µM) | 0.0298 | -0.0082 | -0.0113 | -0.0395 | 0.0548 | -0.0423 | 0.0124 | -0.0151 | 0.0103 | 0.0084 | -0.0211 | 0.045 | -0.0609 | 0.0055 | -0.0115 | -0.0795 | -0.117 | 0.0773 | 0.067 | -0.0372 |
| COc1cccc2c1C(=O)c1c(O)c3c(c(O)c1C2=O)C[C@@](O)(C(=O)CO)C[C@@H]3O[C@H]1C[C@H](N)[C@H](O)[C@H](C)O1 [Doxorubicin] + Cc1cc2ncnn2cc1Nc1ncc2c(n1)n(C1CCOCC1)c(=O)n2C [AZD7648] (first compound max 1 µM, 7x7, partner max 10 µM) | 0.0378 | 0.139 | 0.0309 | 0.0218 | 0.112 | 0.0269 | 0.0536 | 0.0888 | 0.0432 | 0.0727 | 0.0099 | 0.0351 | -0.0229 | -0.0158 | 0.119 | 0.0191 | 0.115 | 0.0268 | 0.0275 | 0.0082 |
| CN(CCO)CC[C@H](CSc1ccccc1)Nc1ccc(S(=O)(=O)NC(=O)c2ccc(N3CCC([C@@H](O)c4ccccc4-c4ccc(Cl)cc4)CC3)cc2)cc1S(=O)(=O)C(F)(F)F [AZD4320] + Cc1cc2ncnn2cc1Nc1ncc2c(n1)n(C1CCOCC1)c(=O)n2C [AZD7648] (first compound max 1 µM, 7x7, partner max 10 µM) | -0.0257 | -0.0061 | -0.0184 | -0.0588 | 0.0378 | -0.0522 | 0.0184 | -0.0149 | -0.0389 | 0.0127 | -0.0293 | -0.0348 | -0.033 | -0.0203 | 0.001 | -0.0578 | -0.0005 | -0.0266 | -0.0292 | -0.0578 |
| Cc1c2c(nn1C)CSCc1cc(n(C)n1)CSc1cc(c3ccccc3c1)OCCCc1c(C(=O)O)n(C)c3c-2c(Cl)ccc13 [AZD5991] + C[C@@H](Nc1cc(F)cc(F)c1)c1cc(C(=O)N(C)C)cc2c(=O)cc(N3CCOCC3)oc12 [AZD8186] (first compound max 1 µM, 7x7, partner max 3 µM) | 0.0464 | 0.0341 | 0.0098 | 0.0294 | 0.0105 | -0.0534 | -0.0528 | -0.0287 | -0.015 | -0.0094 | -0.012 | -0.032 | -0.0172 | -0.024 | -0.0144 | -0.0725 | -0.0496 | -0.0603 | -0.0297 | 0.0157 |
| Cn1cnc2c(F)c(Nc3ccc(Br)cc3Cl)c(C(=O)NOCCO)cc21 [Selumetinib] + CC(C)n1c(=O)n(C)c2cnc3cc(F)c(-c4ccc(OCCCN5CCCCC5)nc4)cc3c21 [AZD1390] (first compound max 10 µM, 7x7, partner max 0.3 µM) | -0.0283 | -0.0248 | -0.0368 | -0.0576 | 0.002 | -0.0058 | 0.0304 | -0.0488 | -0.0294 | -0.0103 | -0.0043 | -0.0251 | -0.0317 | -0.0208 | 0.0032 | -0.0313 | -0.0413 | -0.0002 | -0.0401 | -0.0542 |
